Entries after “also recorded” stand apart in the source; their conditions may differ.
Legend:
[1] = system: LNCap tumor; experiment: Ex vivo tumor uptake in LNCap tumor bearing NSG mice
Description: Ex vivo tumor uptake expressed as percentage injected activitiy per gram of tissue (% lAg) (mean±/−SEM, n=3/group) in LNCap tumor bearing NSG mice following injection of either monomeric [^64Cu]Cu-SarPSMA (2 MBq, 0.9 nmol of peptide) or dimeric [^64Cu]Cu-Sar-bisPSMA (2 MBq, 0.2 nmol of peptide).

[2] = biological target: T1, PSMA receptor (Homo sapiens, UniProt Q04609); experiment: Same-day (Day 0) versus next-day (Day 1) PET imaging of patients; type: in vivo
T1 construct: localises at sites that overexpress the PSMA receptor and are indicative of a cancer; from tissue; host or cells: Primary prostate cancer and metastatic lesions (lymph node, bone, prostatic bed) in living patients

[3] = biological target: T1, PSMA receptor; experiment: PET/CT lesion intensity (SUVmax, SUVmean, TTBR) in patients with untreated primary prostate cancer; type: in vivo; conditions: for SUVmax Median Difference / SUVmean Median Difference / TTBR Median Difference: ^64Cu vs ^68Ga; for Tumor to background ratio compared between ^64Cu-Sar-bisPSMA and ^68Ga-PSMA-11 (words): concordant lesions, FIG. 6; for Tumor to background ratio compared between ^64Cu-Sar-bisPSMA and ^68Ga-PSMA-11 (words) / SUVmean of lesions compared between ^64Cu-Sar-bisPSMA and ^68Ga-PSMA-11 (words) / SUVmax of lesions compared between ^64Cu-Sar-bisPSMA and ^68Ga-PSMA-11 (words): two readers; for SUVmean of lesions compared between ^64Cu-Sar-bisPSMA and ^68Ga-PSMA-11 (words) / SUVmax of lesions compared between ^64Cu-Sar-bisPSMA and ^68Ga-PSMA-11 (words): same subjects; for SUVmean of lesions compared between ^64Cu-Sar-bisPSMA and ^68Ga-PSMA-11 (words): FIG. 5; for SUVmax of lesions compared between ^64Cu-Sar-bisPSMA and ^68Ga-PSMA-11 (words): FIGS. 2, 4
Protocol: Patients with untreated, histopathology-proven, intermediate- to high-risk PC, planned for radical prostatectomy underwent ^68Ga-PSMA-11 PET/CT per institutional practice and were subsequently allocated to 1 out of 3 dose cohorts (1:1:3) to receive either 100 MBq, 150 MBq or 200 MBq of ^64Cu-SAR-bisPSMA, respectively. The specified dose of ^64Cu-Sar-bisPSMA was administered to each patient as a single bolus IV injection. […] PET/CT scans at other times after injection of the compound were acquired as required.
Patients were scanned using the standard clinical whole-body PET/CT acquisition protocol defined for each clinical site and in accordance with the Image Acquisition Manual, which contains details of scan acquisition, processing parameters and quality assurance procedures. The same scanner was used for each visit. Typical imaging acquisition parameters are below:
Two independent, blinded, central readers assessed the detection of primary PC on the 200 MBq ^64Cu-SAR-bisPSMA PET/CTs as the primary endpoint. To compare the intensity of lesions on ^68Ga-PSMA-11 and ^64Cu-SAR-bisPSMA PET, both readers determined the SUVs (SUVmax, SUVmean) and tumour-to-background ratio (ratio of lesion SUVmax and background SUVmean) in up to 5 concordant lesions between ^68Ga-PSMA-11 and ^64Cu-SAR-bisPSMA PET/CT as an exploratory endpoint.
Tables 1 and 2 below compare SUV parameters obtained from PET/CT images after administration of ^68Ga-PSMA-11 and a dose of 200 MBq of ^64Cu-SAR-bisPSMA from each reader.
Tables 3 and 4 below compare SUV parameters obtained from PET/CT images after administration of ^68Ga-PSMA-11 (200 MBq) and ^64Cu-SAR-bisPSMA (200 MBq) from each reader.

[4] = next-day imaging, Day 1, same subject
[5] = Table 1, first reader, 200 MBq ^64Cu-SAR-bisPSMA, N=17
[6] = Table 2, second reader, 200 MBq ^64Cu-SAR-bisPSMA, N=13

T1 sequence (Q04609 whole entry): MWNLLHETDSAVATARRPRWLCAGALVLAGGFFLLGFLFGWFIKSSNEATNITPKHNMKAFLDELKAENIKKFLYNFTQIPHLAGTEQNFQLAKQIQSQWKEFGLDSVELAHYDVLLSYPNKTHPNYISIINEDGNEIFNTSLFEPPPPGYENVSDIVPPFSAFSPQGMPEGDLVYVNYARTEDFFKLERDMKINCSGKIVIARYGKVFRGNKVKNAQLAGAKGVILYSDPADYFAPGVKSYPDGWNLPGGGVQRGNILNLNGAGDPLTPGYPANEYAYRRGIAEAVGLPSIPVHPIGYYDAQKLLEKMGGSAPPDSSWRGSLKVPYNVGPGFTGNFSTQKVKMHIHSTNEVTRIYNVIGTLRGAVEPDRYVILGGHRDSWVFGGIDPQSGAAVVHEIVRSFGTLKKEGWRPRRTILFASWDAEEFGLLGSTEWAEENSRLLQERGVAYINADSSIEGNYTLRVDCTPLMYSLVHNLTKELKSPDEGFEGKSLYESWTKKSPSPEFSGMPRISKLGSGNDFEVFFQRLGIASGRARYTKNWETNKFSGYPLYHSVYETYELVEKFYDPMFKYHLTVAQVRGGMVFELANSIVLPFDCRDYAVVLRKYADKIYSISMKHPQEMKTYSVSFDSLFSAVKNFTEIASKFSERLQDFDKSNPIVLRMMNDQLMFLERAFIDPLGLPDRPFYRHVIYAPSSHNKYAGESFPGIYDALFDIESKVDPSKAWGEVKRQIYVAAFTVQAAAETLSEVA

With Sar-bisPSMA [^64Cu-SAR-bisPSMA] the “Amount retained at the tumor site relative to ^64Cu-SarPSMA (FIG. 1)” value ([1]; 6 and 24 hours after administration) was “far greater”, the “Ex vivo tumor uptake relative to monomeric ^64Cu-Sar-PSMA (FIG. 1)” value ([1]; 1 hour after administration, 2 MBq, n=3/group) was “approximately double” and the “Uptake and retention at tumors, dimer versus monomer (FIG. 1)” value ([1]; mouse, in vivo) was “higher uptake and retention”. For the same substance, the “Increase of SUVmax, next-day compared to same-day imaging (FIG. 7)” value ([2]; Day 1 vs Day 0) was “more than double”, the “SUVmax Day 1 relative to previous day (FIG. 9)” value ([2]; Day 1 vs same day) was 4 times and the “Average SUVmax for the bone and pelvic lymph node lesions (FIG. 11B)” value ([2]; following day imaging, same patient) was 20.0. For the same substance, the “Lesion visualisation on PET (words)” value ([2]; next-day imaging (Day 1), FIGS. 8-12, listed as 64Cu Sar-bisPSMA) was “clearly identified a lesion”, the “Lesion visualisation on PET (words)” value ([2]; next-day imaging (Day 1), FIGS. 8-12, listed as 64Cu-Sar-bisPSMA) was “identified by three readers; also recorded: more positive lesions; also recorded: only visualised with imaging on the following day; also recorded: additional positive lesions” and the “Lesion visualisation on PET (words)” value ([2]; next-day imaging (Day 1), FIGS. 8-12, listed as compound of Formula (I) complexed with ^64Cu) was “successfully identifies a lesion”. The “SUVmax of lesion (FIG. 9C)” value [2, 4] was 17.5, the “SUVmax of positive pelvic lymph node lesion (FIG. 7)” value [2, 4] was 50.4 and the “Average SUVmax for the bone and pelvic lymph node lesions (FIG. 11A)” value ([2]; same day imaging, one patient) was 9.8. The “Lesion visualisation on PET (words)” value ([2]; same-day imaging (Day 0), FIGS. 8-9, listed as 64Cu Sar-bisPSMA) was “negative”, the “Lesion visualisation on PET (words)” value ([2]; same-day imaging (Day 0), FIGS. 8-9, listed as 64Cu-Sar-bisPSMA) was “less apparent; also recorded: not visualised” and the “Lesion visualisation on PET (words)” value ([2]; same-day imaging (Day 0), FIGS. 8-9, listed as compound of Formula (I) complexed with ^64Cu) was “does not clearly visualise a lesion”. For the same substance, the “SUVmax of positive pelvic lymph node lesion (FIG. 7)” value ([2]; same-day imaging, Day 0, one subject) was 20.8, the “SUVmax of lesion (FIG. 9B)” value ([2]; same-day imaging, same subject) was 4.3 and the “SUVmax Max” value [3, 5] was 100. The “SUVmax Median” value [3, 5] was 31.40, the “SUVmax Min” value [3, 5] was 8 and the “SUVmean Max” value [3, 5] was 69.9. The “SUVmean Mean” value [3, 5] was 27.25, the “SUVmean Median” value [3, 5] was 21.76 and the “SUVmean Min” value [3, 5] was 5.5. For the same substance, the “TTBR (Tumour-to-Background Ratio) Mean” value [3, 5] was 77.25, the “TTBR Max” value [3, 5] was 227.3 and the “TTBR Median” value [3, 5] was 49.07. For the same substance, the “TTBR Min” value [3, 5] was 10.3, the “SUVmax Median Difference” value ([3]; Table 1, first reader, N=17) was 14.85 and the “SUVmean Median Difference” value ([3]; Table 1, first reader, N=17) was 9.64. For the same substance, the “TTBR Median Difference” value ([3]; Table 1, first reader, N=17) was 27.15, the “SUVmax Mean” value ([3]; Table 1, first reader, ^68Ga-PSMA-11 vs 200 MBq ^64Cu-SAR-bisPSMA PET/CT, concordant lesions averaged per participant, N=17) was 40.28 and the “SUVmax Max” value [3, 6] was 100. The “SUVmax Median” value [3, 6] was 41.00, the “SUVmax Min” value [3, 6] was 6.1 and the “SUVmean Max” value [3, 6] was 69.9. For the same substance, the “SUVmean Mean” value [3, 6] was 31.78, the “SUVmean Median” value [3, 6] was 28.07 and the “SUVmean Min” value [3, 6] was 4.4. For the same substance, the “TTBR (Tumour-to-Background Ratio) Mean” value [3, 6] was 86.40, the “TTBR Max” value [3, 6] was 212.8 and the “TTBR Median” value [3, 6] was 76.34. For the same substance, the “TTBR Min” value [3, 6] was 6.7, the “SUVmax Median Difference” value ([3]; Table 2, second reader, N=13) was 27.03 and the “SUVmean Median Difference” value ([3]; Table 2, second reader, N=13) was 18.44. The “TTBR Median Difference” value ([3]; Table 2, second reader, N=13) was 45.37, the “SUVmax Mean” value ([3]; Table 2, second reader, ^68Ga-PSMA-11 vs 200 MBq ^64Cu-SAR-bisPSMA PET/CT, concordant lesions averaged per participant, N=13) was 47.37 and the “SUVmax Max” value ([3]; Table 3, first reader, N=28) was 100.00. The “SUVmax Median” value ([3]; Table 3, first reader, N=28) was 30.26, the “SUVmax Min” value ([3]; Table 3, first reader, N=28) was 8.00 and the “SUVmean Max” value ([3]; Table 3, first reader, N=28) was 69.90. For the same substance, the “SUVmean Mean” value ([3]; Table 3, first reader, N=28) was 27.41, the “SUVmean Median” value ([3]; Table 3, first reader, N=28) was 21.20 and the “SUVmean Min” value ([3]; Table 3, first reader, N=28) was 5.40. For the same substance, the “TTBR (Tumour-to-Background Ratio) Mean” value ([3]; Table 3, first reader, N=28) was 83.38, the “TTBR Max” value ([3]; Table 3, first reader, N=28) was 294.10 and the “TTBR Median” value ([3]; Table 3, first reader, N=28) was 53.55. The “TTBR Min” value ([3]; Table 3, first reader, N=28) was 10.30, the “SUVmax Median Difference” value ([3]; Table 3, first reader, N=28) was 14.23 and the “SUVmean Median Difference” value ([3]; Table 3, first reader, N=28) was 9.26. The “TTBR Median Difference” value ([3]; Table 3, first reader, N=28) was 27.94, the “SUVmax Mean” value ([3]; Table 3, first reader, ^68Ga-PSMA-11 (200 MBq) vs ^64Cu-SAR-bisPSMA (200 MBq) PET/CT, lesions averaged per participant, N=28) was 41.66 and the “SUVmax Max” value ([3]; Table 4, second reader, N=16) was 100. The “SUVmax Median” value ([3]; Table 4, second reader, N=16) was 41.66, the “SUVmax Min” value ([3]; Table 4, second reader, N=16) was 6.1 and the “SUVmean Max” value ([3]; Table 4, second reader, N=16) was 69.9. The “SUVmean Mean” value ([3]; Table 4, second reader, N=16) was 33.24, the “SUVmean Median” value ([3]; Table 4, second reader, N=16) was 28.4 and the “SUVmean Min” value ([3]; Table 4, second reader, N=16) was 4.4. The “TTBR (Tumour-to-Background Ratio) Mean” value ([3]; Table 4, second reader, N=16) was 93.86, the “TTBR Max” value ([3]; Table 4, second reader, N=16) was 243.9 and the “TTBR Median” value ([3]; Table 4, second reader, N=16) was 78.37. For the same substance, the “TTBR Min” value ([3]; Table 4, second reader, N=16) was 6.7, the “SUVmax Median Difference” value ([3]; Table 4, second reader, N=16) was 27.99 and the “SUVmean Median Difference” value ([3]; Table 4, second reader, N=16) was 18.78. For the same substance, the “TTBR Median Difference” value ([3]; Table 4, second reader, N=16) was 46.93, the “SUVmax Mean” value ([3]; Table 4, second reader, ^68Ga-PSMA-11 (200 MBq) vs ^64Cu-SAR-bisPSMA (200 MBq) PET/CT, lesions averaged per participant, N=16) was 49.73 and the “Tumor to background ratio compared between ^64Cu-Sar-bisPSMA and ^68Ga-PSMA-11 (words)” value ([3]; listed as 64Cu-Sar-bisPSMA) was “higher”. The “Tumor to background ratio compared between ^64Cu-Sar-bisPSMA and ^68Ga-PSMA-11 (words)” value ([3]; listed as 64Cu-SarbisPSMA) was “higher tumour to background ratio”, the “SUVmean of lesions compared between ^64Cu-Sar-bisPSMA and ^68Ga-PSMA-11 (words)” value [3] was “consistently higher” and the “SUVmean of lesions compared between ^64Cu-Sar-bisPSMA and ^68Ga-PSMA-11 (words)” value ([3]; listed as 64Cu-Sar-bis-PSMA) was “higher SUVmean”. The “SUVmean of lesions compared between ^64Cu-Sar-bisPSMA and ^68Ga-PSMA-11 (words)” value ([3]; listed as 64Cu-Sar-bisPSMA) was “greater”, the “SUVmax of lesions compared between ^64Cu-Sar-bisPSMA and ^68Ga-PSMA-11 (words)” value [3] was “consistently higher” and the “SUVmax of lesions compared between ^64Cu-Sar-bisPSMA and ^68Ga-PSMA-11 (words)” value ([3]; listed as 64Cu-Sar-bisPSMA) was “higher SUVmax; also recorded: greater”. The “SUVmax of lesions compared between ^64Cu-Sar-bisPSMA and ^68Ga-PSMA-11 (words)” value ([3]; listed as 64Cu-SarbisPSMA) was “higher SUVmax”.
